IC50 and Km data for two molecules are collected here from publication PMC2646200 (Biochemistry, 2008).

In data set [1] the target is PDE8A1 (Homo sapiens, UniProt O60658). The experiment in a line: 3H-cAMP hydrolysis assay, IC50. The data set is classed as biochemical.
Data set [2] has as its target PDE8A1 (Homo sapiens, UniProt O60658, Y748F). Put plainly: 3H-cAMP hydrolysis assay, IC50. In kind it is biochemical.
Substrate in data set [3]: [H][C@@]12COP(=O)(O)O[C@@]1([H])[C@@H](O)[C@H](n1cnc3c(=O)[nH]c(N)nc31)O2
Put plainly: purified protein. Particulars: Mn2+ ([…] MnCl2).

Chain of PDE8A1 (Homo sapiens, UniProt O60658, Y748F) (O60658 480-820 Y748F): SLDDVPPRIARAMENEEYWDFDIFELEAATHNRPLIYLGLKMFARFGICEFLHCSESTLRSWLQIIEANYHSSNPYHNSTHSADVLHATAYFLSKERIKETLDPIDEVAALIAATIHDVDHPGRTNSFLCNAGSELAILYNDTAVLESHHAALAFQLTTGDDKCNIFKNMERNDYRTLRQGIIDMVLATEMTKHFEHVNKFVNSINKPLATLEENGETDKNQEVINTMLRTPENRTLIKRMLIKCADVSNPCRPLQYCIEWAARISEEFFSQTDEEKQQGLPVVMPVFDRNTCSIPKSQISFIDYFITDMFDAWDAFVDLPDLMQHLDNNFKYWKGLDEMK

Broadly, the IC50 is the concentration that inhibits the measured activity by half. Low readings indicate greater potency in that assay, high ones weaker potency in that assay. Regarding `OCCN(CCO)c1nc(N2CCCCC2)c2nc(N(CCO)CCO)nc(N3CCCCC3)c2n1` [dipyridamole], the results for the IC50 in data set [1] and in data set [2] were 6 ± 0.4 µM and 4.1 ± 0.4 µM, respectively.

B1: PDE8A1 (Homo sapiens) (protein)
chain: SLDDVPPRIARAMENEEYWDFDIFELEAATHNRPLIYLGLKMFARFGICEFLHCSESTLRSWLQIIEANYHSSNPYHNSTHSADVLHATAYFLSKERIKETLDPIDEVAALIAATIHDVDHPGRTNSFLCNAGSELAILYNDTAVLESHHAALAFQLTTGDDKCNIFKNMERNDYRTLRQGIIDMVLATEMTKHFEHVNKFVNSINKPLATLEENGETDKNQEVINTMLRTPENRTLIKRMLIKCADVSNPCRPLQYCIEWAARISEEYFSQTDEEKQQGLPVVMPVFDRNTCSIPKSQISFIDYFITDMFDAWDAFVDLPDLMQHLDNNFKYWKGLDEMK
A word on the Km: it is the concentration of substrate that gives half-maximal velocity. Consider B1, for which the Km in data set [3] turned out to be 1600 ± 100 µM.
